Here are results for 15 compounds from patent publication US9765039B2, “Biaryl derivatives as bromodomain inhibitors” (Zenith Epigenetics Ltd., priority 2012, dated 2017).

The target of one series is T1, Brd4 bromodomain 1 (Homo sapiens, UniProt O60885).
T1 construct: made in house; host or cells: E. coli BL21(DE3)
Briefly: Inhibition of tetra-acetylated histone H4 binding to BET bromodomains (TR-FRET). More on the design: key: Active: Compounds with an IC50 value less than 30 μM were deemed to be active.; Not Active: Compounds with an IC50 value less than 30 μM were deemed to be active. The settings on record: first bromodomain of Brd4, tetra-acetylated histone H4 peptide. The procedure: Proteins were cloned and overexpressed with a N-terminal 6×His tag, then purified by nickel affinity followed by size exclusion chromatography. Briefly, E. coli BL21(DE3) cells were transformed with a recombinant expression vector encoding N-terminally Nickel affinity tagged bromodomains from Brd2, Brd3, Brd4. Cell cultures were incubated at 37° C. with shaking to the appropriate density and induced overnight with IPTG. The supernatant of lysed cells was loaded onto Ni-IDA column for purification. Eluted protein was pooled, concentrated and further purified by size exclusion chromatography. Fractions representing monomeric protein were pooled, concentrated, aliquoted, and frozen at −80° C. for use in subsequent experiments.
Binding of tetra-acetylated histone H4 and BET bromodomains was confirmed by a Time Resolved Fluorescence Resonance Energy Transfer (TR-FRET) method. N-terminally His-tagged bromodomains (200 nM) and biotinylated tetra-acetylated histone H4 peptide (25-50 nM, Millipore) were incubated in the presence of Europium Cryptate-labeled streptavidin (Cisbio Cat. #610SAKLB) and XL665-labeled monoclonal anti-His antibody (Cisbio Cat. #61HISXLB) in a white 96 well microtiter plate (Greiner). For inhibition assays, serially diluted test compound was added to these reactions in a 0.2% final concentration of DMSO. Final buffer concentrations were 30 mM HEPES pH 7.4, 30 mM NaCl, 0.3 mM CHAPS, 20 mM phosphate pH 7.0, 320 mM KF, 0.08% BSA). After 2 hours incubation at room temperature, the fluorescence by FRET was measured at 665 and 620 nm by a SynergyH4 plate reader (Biotek). Illustrative results with the first bromodomain of Brd4 are shown below (Table 1). The binding inhibitory activity was shown by a decrease in 665 nm fluorescence relative to 620 nm. IC50 values were determined from a dose response curve.
A general note: TR-FRET usually uses a lanthanide donor and a delayed reading to cut background.

A further series deals with hIL-6 mRNA. Briefly: Inhibition of hIL-6 mRNA transcription in LPS-stimulated U937 macrophages. More on the design: key: Active: Compounds with an IC50 value less than 30 μM are deemed to be active. The format is cell-based, human. The settings on record: U937 differentiated into macrophages, 1 h pretreatment, lipopolysaccharide 3 h. The procedure: In this example, hIL-6 mRNA in tissue culture cells was quantitated to measure the transcriptional inhibition of hIL-6 when treated with a compound of the present disclosure.
A human leukemic monocyte lymphoma cell line (U937) was plated (3.2×10^4 cells per well) in a 96-well plate in 100 μL RPMI-1640 containing 10% FBS and penicillin/streptomycin, and differentiated into macrophages for 3 days in 60 ng/mL PMA ([…]) at 37° C. in 5% CO2 prior to the addition of the compound of interest. The cells were pretreated for 1 h with the test compound prior to stimulation with […] lipopolysaccharide from Escherichia coli. The cells were incubated at 37° C. for 3 h before the cells were harvested. At time of harvest, the spent media was removed from the cells and the cells were rinsed in 200 μL PBS. Cell lysis solution (70 μL) was added the cells in each well and incubated for 5-10 min at room temperature, to allow for complete cell lysis and detachment. mRNA was then prepared using the “mRNA Catcher PLUS plate” (Invitrogen), according to the protocol supplied. After the last wash, as much wash buffer as possible was aspirated without allowing the wells to dry. Elution buffer (E3, 70 μL) was then added to each well. mRNA was then eluted by incubating the mRNA Catcher PLUS plate with Elution Buffer for 5 min at 68° C. and then immediately placing the plate on ice.
The eluted mRNA isolated was then used in a one-step quantitative real-time PCR reaction, using components of the Ultra Sense Kit together with Applied Biosystems primer-probe mixes. Real-time PCR data was analyzed, normalizing the Ct values for hIL-6 to an internal control, prior to determining the fold induction of each unknown sample, relative to the control.

Another series concerns c-myc. Briefly: Inhibition of c-myc expression in cancer cell lines (mRNA, real-time PCR). It counts as cell-based. The settings on record: Human AML MV4-11 cells, 3 hours. More on the design: key: Active: Compounds with an IC50 value less than 30 μM were deemed to be active. As to the method: MV4-11 cells (2.5×10^4 cells) were plated in 96 well U-bottom plates with test compound or DMSO (0.1%), and incubated for 3 hours at 37° C. Cells were then harvested by centrifugation, lysed, and mRNA was isolated using the mRNA catcher plus kit (Invitrogen). Reverse transcription of the mRNA and duplex amplification of the c-myc and cyclophilin cDNAs was performed using the RNA Ultrasense kit (Invitrogen) and a ViiA7 real-time PCR machine (Applied Biosystems). IC50 values were determined from a dose response curve.
Background: Quantitative PCR measures a nucleic acid by following its amplification.

The next series has as its system Human AML MV-4-11 cells. Briefly: Inhibition of cell proliferation in cancer cell lines (CellTiter Aqueous One). The format is cell-based. Further details: key: Active: Compounds with an IC50 value less than 30 μM were deemed to be active.; Not Active: Compounds with an IC50 value less than 30 μM were deemed to be active. The settings on record: 72 hours. As to the method:
MV4-11 cells: 96-well plates were seeded with 5×10^4 cells per well of exponentially growing human AML MV-4-11 (CRL-9591) cells and immediately treated with two-fold dilutions of test compounds, ranging from 30 μM to 0.2 μM. Triplicate wells were used for each concentration, as well as a media only and three DMSO control wells. The cells and compounds were incubated at 37° C., 5% CO2 for 72 hours before adding 20 μL of the CellTiter Aqueous One Solution (Promega) to each well and incubating at 37° C., 5% CO2 for an additional 3-4 hours. The absorbance was taken at 490 nm in a spectrophotometer and the percentage of proliferation relative to DMSO-treated cells was calculated after correction from the blank well. IC50 were calculated using the GraphPad Prism software.

Structures can show the parent of a compound that is named as a salt.

With `COc1cc(OC)c2c(=O)[nH]c(-c3ccc(OCCO)c(-c4ccc(C(C)=O)cc4)n3)nc2c1` (as salt: hydrochloride) [Example 28, 2-(6-(4-Acetylphenyl)-5-(2-hydroxyethoxy)pyridin-2-yl)-5,7-dimethoxyquinazolin-4(3H)-one], the melting point lay in the range of 232 to 234 °C.

For the compound `CCS(=O)(=O)c1ccc(-c2nc(-c3nc4cc(OC)cc(OC)c4c(=O)[nH]3)ccc2OCCN2CCCC2)cc1` (as salt: hydrochloride) [Example 42, 2-(6-(4-(Ethylsulfonyl)phenyl)-5-(2-(pyrrolidin-1-yl)ethoxy)pyridin-2-yl)-5,7-dimethoxyquinazolin-4(3H)-one], the melting point was 235 to 236 °C.

Turning to `CN1CC[C@H](Oc2cc(F)cc3nc(-c4cccc(-c5ccc(S(C)(=O)=O)cc5)n4)[nH]c(=O)c23)C1` [Example 7, (S)-7-Fluoro-5-((1-methylpyrrolidin-3-yl)oxy)-2-(6-(4-(methylsulfonyl)phenyl)pyridin-2-yl)quinazolin-4(3H)-one], at Brd4 bromodomain 1, the “FRET activity (IC50 < 30 μM)” value is “Not Active”. For the same compound, the “IL-6 activity (IC50 < 30 μM)” value in the series with hIL-6 mRNA is given as “Not Active”.

Consider `COc1cc(OC)c2c(=O)[nH]c(-c3cccc(-c4ccc(C(=O)N(C)C)cc4)n3)cc2c1` [Example 8, 4-(6-(6,8-Dimethoxy-1-oxo-1,2-dihydroisoquinolin-3-yl)pyridin-2-yl)-N,N-dimethylbenzamide], for which the “c-myc activity (IC50 < 30 μM)” value in the series with c-myc is given as “Not Active”. In addition, in the series with Human AML MV-4-11 cells, the “cell proliferation activity (IC50 < 30 μM)” value (shortened to “cell proliferation activity”) is on record as “Active”. The “FRET activity (IC50 < 30 μM)” value on Brd4 bromodomain 1 was “Not Active”. Besides, the “IL-6 activity (IC50 < 30 μM)” value in the series on hIL-6 mRNA is “Active”.

Turning to `COc1cc(OC)c2c(=O)[nH]c(-c3cccc(-c4ccc(S(C)(=O)=O)cc4)n3)cc2c1` [Example 9, 6,8-Dimethoxy-3-(6-(4-(methylsulfonyl)phenyl)pyridin-2-yl)isoquinolin-1(2H)-one], on Brd4 bromodomain 1, the “FRET activity (IC50 < 30 μM)” value was “Not Active”. The “IL-6 activity (IC50 < 30 μM)” value in the series on hIL-6 mRNA is “Not Active”.

As to `COc1cc(OC)c2c(=O)[nH]c(-c3cccc(-c4ccc([S+](C)[O-])cc4)n3)cc2c1` (stereo not shown) [Example 10, 6,8-dimethoxy-3-(6-(4-(methylsulfinyl)phenyl)pyridin-2-yl)isoquinolin-1(2H)-one], the “FRET activity (IC50 < 30 μM)” value on Brd4 bromodomain 1 is “Not Active”. The “IL-6 activity (IC50 < 30 μM)” value with hIL-6 mRNA is “Active”.

With `COc1cc(OC)c2c(=O)[nH]c(-c3ccc(OCCN(C)C)c(-c4ccc([S+](C)[O-])cc4)c3)nc2c1` (stereo not shown) [Example 11, 2-(6-(2-(Dimethylamino)ethoxy)-4′-(methylsulfinyl)biphenyl-3-yl)-5,7-dimethoxyquinazolin-4(3H)-one], the “c-myc activity (IC50 < 30 μM)” value in the series with c-myc is reported as “Active”. In addition, in the series on Human AML MV-4-11 cells, the “cell proliferation activity” value is recorded as “Active”. Moreover, on Brd4 bromodomain 1, the “FRET activity (IC50 < 30 μM)” value was “Active”. Besides, in the series with hIL-6 mRNA, the “IL-6 activity (IC50 < 30 μM)” value is on record as “Active”.

On to `COc1cc(OC)c2c(=O)[nH]c(-c3ccc(OC4CNC4)c(-c4ccc([S+](C)[O-])cc4)c3)nc2c1` (stereo not shown) [Example 12, 2-(6-(Azetidin-3-yloxy)-4′-(methylsulfinyl)biphenyl-3-yl)-5,7-dimethoxyquinazolin-4(3H)-one], for which the “c-myc activity (IC50 < 30 μM)” value with c-myc was “Not Active”. For the same compound, the “cell proliferation activity” value in the series with Human AML MV-4-11 cells is recorded as “Not Active”. In addition, the “IL-6 activity (IC50 < 30 μM)” value in the series with hIL-6 mRNA is recorded as “Not Active”.

Take `COc1cc(OC)c2c(=O)[nH]c(-c3ccc(OC4CN(C)C4)c(-c4ccc([S+](C)[O-])cc4)c3)nc2c1` (stereo not shown) [Example 13, 5,7-Dimethoxy-2-(6-(1-methylazetidin-3-yloxy)-4′-(methylsulfinyl)biphenyl-3-yl)quinazolin-4(3H)-one]: in the series with c-myc, the “c-myc activity (IC50 < 30 μM)” value was “Active”. Moreover, in the series with Human AML MV-4-11 cells, the “cell proliferation activity” value is on record as “Active”. On Brd4 bromodomain 1, the “FRET activity (IC50 < 30 μM)” value is given as “Active”. Besides, the “IL-6 activity (IC50 < 30 μM)” value in the series with hIL-6 mRNA was “Active”.

In the case of `COc1cc(F)cc2nc(-c3ccc(OC4CNC4)c(-c4ccc([S+](C)[O-])cc4)c3)[nH]c(=O)c12` (stereo not shown) [Example 14, 2-(6-(Azetidin-3-yloxy)-4′-(methylsulfinyl)-[1,1′-biphenyl]-3-yl)-7-fluoro-5-methoxyquinazolin-4(3H)-one], the “c-myc activity (IC50 < 30 μM)” value in the series on c-myc was “Not Active”. The “cell proliferation activity” value in the series on Human AML MV-4-11 cells is recorded as “Not Active”. Further, on Brd4 bromodomain 1, the “FRET activity (IC50 < 30 μM)” value was “Active”. For the same compound, the “IL-6 activity (IC50 < 30 μM)” value in the series on hIL-6 mRNA is on record as “Not Active”.

As to `COc1cc(OC)c2c(=O)[nH]c(-c3ccc(OCCO)c(-c4ccc([S+](C)[O-])cc4)c3)nc2c1` (stereo not shown) [Example 16, 2-(6-(2-Hydroxyethoxy)-4′-(methylsulfinyl)biphenyl-3-yl)-5,7-dimethoxyquinazolin-4(3H)-one], the “c-myc activity (IC50 < 30 μM)” value in the series with c-myc is given as “Not Active”. In addition, the “cell proliferation activity” value in the series with Human AML MV-4-11 cells was “Not Active”. For the same compound, the “FRET activity (IC50 < 30 μM)” value at Brd4 bromodomain 1 was “Active”. Besides, the “IL-6 activity (IC50 < 30 μM)” value with hIL-6 mRNA is listed as “Active”.

`COc1cc(OC)c2c(=O)[nH]c(-c3ccc(OCCO)c(-c4ccc(C(C)=O)cc4)n3)nc2c1` [Example 28, 2-(6-(4-Acetylphenyl)-5-(2-hydroxyethoxy)pyridin-2-yl)-5,7-dimethoxyquinazolin-4(3H)-one]: the “FRET activity (IC50 < 30 μM)” value on Brd4 bromodomain 1 is “Active”. Moreover, the “IL-6 activity (IC50 < 30 μM)” value in the series with hIL-6 mRNA is reported as “Active”.

For `COc1cc(OC)c2c(=O)[nH]c(-c3ccc(OCCO)c(-c4cccc(S(C)(=O)=O)c4)n3)nc2c1` [Example 36, 2-(5-(2-Hydroxyethoxy)-6-(3-(methylsulfonyl)phenyl)pyridin-2-yl)-5,7-dimethoxyquinazolin-4(3H)-one methanesulfonate], the “c-myc activity (IC50 < 30 μM)” value in the series with c-myc is listed as “Not Active”. Also, the “cell proliferation activity” value with Human AML MV-4-11 cells is “Not Active”. Moreover, the “FRET activity (IC50 < 30 μM)” value on Brd4 bromodomain 1 is “Not Active”. In addition, the “IL-6 activity (IC50 < 30 μM)” value in the series on hIL-6 mRNA is “Not Active”.

On to `CC(C)NCCOc1ccc(-c2nc3ccccc3c(=O)[nH]2)nc1-c1ccc([S+](C)[O-])cc1` (stereo not shown) [Example 65, 2-(5-(2-(Isopropylamino)ethoxy)-6-(4-(methylsulfinyl)phenyl)pyridin-2-yl)quinazolin-4(3H)-one], for which, on Brd4 bromodomain 1, the “FRET activity (IC50 < 30 μM)” value is listed as “Active”. Also, the “IL-6 activity (IC50 < 30 μM)” value in the series on hIL-6 mRNA is reported as “Active”.

On to `COc1ccc2c(=O)[nH]c(-c3ccc(OCCNC(C)C)c(-c4ccc([S+](C)[O-])cc4)n3)nc2c1` (stereo not shown) [Example 66, 2-(5-(2-(Isopropylamino)ethoxy)-6-(4-(methylsulfinyl)phenyl)pyridin-2-yl)-7-methoxyquinazolin-4(3H)-one], for which the “FRET activity (IC50 < 30 μM)” value at Brd4 bromodomain 1 is recorded as “Active”.

One may read the melting point as the temperature of the solid-liquid transition.
